Data: US6495698B1, “Binder-free compacted forms of 1,3-dihalo-5,5-dimethylhydantoins” (Albemarle Corporation, priority 2000, dated 2002)

Assays:
Format in all cases: physicochemical
[1] = Tableting (pressure compaction) without binder in Sintech press; conditions: for compaction into tablets without binder (state of tablets released from the die): without any binder
Description: The commerically available 1,3-dihalo-5,5-dimethylhydantoins referred to in Example 1 were subjected to tableting operations. Five-gram samples of 1,3-dibromo-5,5-dinethylhydantoin and four-gram samples of DCDMH and BCDMH were compacted without binder in a Sintech® press (MTS Systems Corporation, Edenprairie, Minn.) equipped with a punch and die fabricated from Hastelloy® C alloy. Before manually filling the die, the interior surfaces of the die were lightly dusted with micronized polypropylene wax (MICROPRO 400 wax; Micro Powders, Incorporated, Tarrytown, N.Y.). The pressure applied was 5000 psi with no dwell time, i.e., the pressure was terminated automatically immediately upon reaching 5000 psi. The resultant tablets after removal from the die were aged for 6 days at room temperature. Thereupon the tablets were subjected to crush strength testing utilizing a Sintech® 1/S compression apparatus (MTS Systems Corporation, Edenprairie, Minnesota) equipped with Testworks software, which software is installed in the 1/S compression apparatus as supplied by MTS Systems Corporation. The apparatus includes a horizontal circular-shaped load cell interfaced with a computer, a digital micrometer also interfaced with the computer, and a vertical screw-driven piston that is disposed above the load cell and adapted to apply a downward force perpendicular to the load cell. The procedure for measuring crush strength involves measuring the thickness of the tablet with the micrometer to provide a digitized input to the computer. Next the tablet is placed on its edge on the load cell with the piston in contact with the upper edge of the tablet. Then the apparatus is activated whereby the piston commences applying a progressively increasing downward diametral force to the tablet. At the same time, the load cell continuously measures the downward force being applied to the tablet, and the input of such measurements is transmitted to the computer. […]

[2] = Particle size determination with Coulter LS Particle Size Analyzer; conditions: for Particle Size 10% is greater than / Particle Size 25% is greater than / Particle Size 50% is greater than / Particle Size 75% is greater than / Particle Size 90% is greater than / Particle Size Average: commercially available sample
Protocol: All particle size determinations referred to in the following Examples were determined by use of a Coulter® LS Particle Size Analyzer. The analyzer was equipped with an LS 230 small volume module and a Fraunhofer PIDS (Polarization Intensity Differential Scattering) detector switched to the “On” position. The determinations were performed at room temperature with a run time of approximately 1 minute per sample. Prior to conducting the particle size determination, and whenever the sample appeared to contain particles adhering to each other, the sample was subjected for 15±1 seconds to sonication using a Sonicor Model SC-100T apparatus to ensure that the particle size measurements were on individual particles of the product, rather than temporarily agglomerated particles.
Samples of commercially-available N,N′-dihalo-5,5-dimethylhydantoins were obtained and subjected to standard test procedures inorderto determine their average particle size using the Coulter® LS Particle Size Analyzer. Table 1 summarizes the results of these average particle size determinations, and also sets forth the data obtained in the same way on arepresentative sample of the 1,3-dibromo-5,5-dimethylhydantoin product of application Ser. No. 09/484,687. Table 2 summarizes the particle size distribution data on the commercially-available 1,3-dihalo-5,5-dimethylhydantoins. In Table 2 the following abbreviations are used: DCDMH is 1,3-dichloro-5,5-dimethylhydantoin; BCDMH is N,N′-bromochloro-5,5-dimethylhydantoin; and DBDMH is 1,3-dibromo-5,5-dimethylhydantoin.

[3] = Crush strength testing of tablets (Sintech 1/S compression apparatus); conditions: binder-free tablets compacted at 5000 psi, aged 6 days at room temperature; average of three tests
Description: The commerically available 1,3-dihalo-5,5-dimethylhydantoins referred to in Example 1 were subjected to tableting operations. Five-gram samples of 1,3-dibromo-5,5-dinethylhydantoin and four-gram samples of DCDMH and BCDMH were compacted without binder in a Sintech® press (MTS Systems Corporation, Edenprairie, Minn.) equipped with a punch and die fabricated from Hastelloy® C alloy. Before manually filling the die, the interior surfaces of the die were lightly dusted with micronized polypropylene wax (MICROPRO 400 wax; Micro Powders, Incorporated, Tarrytown, N.Y.). The pressure applied was 5000 psi with no dwell time, i.e., the pressure was terminated automatically immediately upon reaching 5000 psi. The resultant tablets after removal from the die were aged for 6 days at room temperature. Thereupon the tablets were subjected to crush strength testing utilizing a Sintech® 1/S compression apparatus (MTS Systems Corporation, Edenprairie, Minnesota) equipped with Testworks software, which software is installed in the 1/S compression apparatus as supplied by MTS Systems Corporation. […]
As used herein, including the claims, values given for crush strength are as measured using the apparatus and procedure as described in Example 2 above. […]

[4] = material compacted on small scale in manually filled dies

Compaction ([1]; without binder, 5000 psi, no dwell time, die dusted with micronized polypropylene wax, listed as 1,3-dibromo-5,5-dimethyhydantoin) | Average Particle Size ([2]; Source: Albemarle Corporation) [microns] | Average Particle Size ([2]; Source: Aldrich Chemical Co.) [microns] | Average Particle Size ([2]; Source: Great Lakes Chemical Corporation) [microns] | Average Particle Size ([2]; Source: the product of Application No. 09/484,687) [microns] | Particle Size 10% is greater than [2] [μ] | Particle Size 25% is greater than [2] [μ] | Particle Size 50% is greater than [2] [μ] | Particle Size 75% is greater than [2] [μ] | Particle Size 90% is greater than [2] [μ] | Particle Size Average [2] [μ] | SMILES | Crush strength [3] [lb/in] | compaction into tablets without binder (state of tablets released from the die) [1] | Average Particle Size [2, 4]
could not be tableted | 64.5 | 162.1 | 45.2 | >500 |  |  |  |  |  |  | CC1(C)C(=O)N(Br)C(=O)N1Br [1,3-dibromo-5,5-dimethylhydantoin] |  |  | 
 |  |  |  |  | 162.7 | 90.12 | 39.21 | 26.85 | 17.91 | 64.59 | CC1(C)C(=O)N(Br)C(=O)N1Br [DBDMH - Albemarle, 1,3-dibromo-5,5-dimethylhydantoin] |  |  | 
 |  |  |  |  | 359.2 | 177.6 | 86.03 | 47.37 | 27.67 | 162.1 | CC1(C)C(=O)N(Br)C(=O)N1Br [DBDMH - Aldrich, 1,3-dibromo-5,5-dimethylhydantoin] |  |  | 
 |  |  |  |  | 78.76 | 49.76 | 34.68 | 23.25 | 13.90 | 45.23 | CC1(C)C(=O)N(Br)C(=O)N1Br [DBDMH - Great Lakes, 1,3-dibromo-5,5-dimethylhydantoin] |  |  | 
 |  | 108.1 |  |  | 195.3 | 134.4 | 80.07 | 45.99 | 27.19 | 108.1 | CC1(C)C(=O)N(Cl)C(=O)N1Cl [DCDMH - Aldrich, 1,3-dichloro-5,5-dimethylhydantoin] | 183.6 | intact and exhibited no visual surface imperfections | about 108 microns

SMILES | Compaction ([1]; without binder, 5000 psi, no dwell time, die dusted with micronized polypropylene wax, listed as 1,3-dibromo-5,5-dimethyhydantoin) | Average Particle Size ([2]; Source: Albemarle Corporation) [microns] | Average Particle Size ([2]; Source: Aldrich Chemical Co.) [microns] | Average Particle Size ([2]; Source: Great Lakes Chemical Corporation) [microns] | Average Particle Size ([2]; Source: the product of Application No. 09/484,687) [microns] | Particle Size 10% is greater than [2] [μ] | Particle Size 25% is greater than [2] [μ] | Particle Size 50% is greater than [2] [μ] | Particle Size 75% is greater than [2] [μ] | Particle Size 90% is greater than [2] [μ] | Particle Size Average [2] [μ] | Crush strength [3] [lb/in] | compaction into tablets without binder (state of tablets released from the die) [1] | Average Particle Size [2, 4]
CC1(C)C(=O)N(Cl)C(=O)N1Br [BCDMH - Aldrich, N,N′-bromochloro-5,5-dimethylhydantoin] |  |  | 323.8 |  |  | 877.9 | 409.9 | 173.9 | 65.39 | 29.35 | 323.8 | 83.9 | intact and exhibited no visual surface imperfections | about 324 microns
